Patent publication US7300946B2, “N-(substituted arylmethyl)-4-(disubstituted methyl) piperidines and pyridines” (Bayer CropScience AG, priority 2002, dated 2007)

Tested on: tobacco budworm (Heliothis virescens [Fabricius])
Assay: surface-treated diet test against the tobacco budworm
Assay type: in vivo
Conditions: tobacco budworm second instar larvae, 0.25 millimoles of candidate insecticide on the surface of the diet, five-day exposure; for Percent Mortality: compared to total number of insects infested; for Percent Growth Inhibition: inhibition of insect weight relative to untreated controls
Summary of the method: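 Wheat germ artificial diet surface-treated with 40 µL of 50 mM DMSO stock diluted 1:7 in 1:1 water/acetone (0.25 millimolar on diet), or sub-multiples for rate tests. One second-instar larva per well, 25° C, 60% RH, 5 days; percent weight inhibition vs DMSO controls and percent mortality.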

Row | Structure (SMILES) | Percent Mortality (surface-treated diet) [%] | Percent Growth Inhibition (surface-treated diet) [%] | Percent Mortality [%] | Percent Growth Inhibition [%]
1 | O=C(Nc1cc(F)c(F)c(F)c1)OC(c1ccc(C(F)(F)F)cc1)C1CCN(Cc2ccc(Oc3ccccn3)cc2)CC1 (stereo not shown) [Compound 697] | 100 | 100 | – | –
2 | COc1ccc(CNC(=O)OC(c2ccc(C(F)(F)F)cc2)C2CCN(Cc3ccc(Oc4ccccn4)cc3)CC2)cc1 (stereo not shown) [Compound 698] | 100 | 100 | – | –
3 | COc1ccc(NC(=O)OC(c2ccc(C(F)(F)F)cc2)C2CCN(Cc3ccc(Oc4ccccn4)cc3)CC2)cc1Cl (stereo not shown) [Compound 699] | 100 | 100 | – | –
4 | COc1ccc(NC(=O)OC(c2ccc(C(F)(F)F)cc2)C2CCN(Cc3ccc(Oc4ccccn4)cc3)CC2)cc1F (stereo not shown) [Compound 700] | 100 | 100 | – | –
5 | O=C(Nc1ccc(OC(F)F)cc1)OC(c1ccc(C(F)(F)F)cc1)C1CCN(Cc2ccc(Oc3ccccn3)cc2)CC1 (stereo not shown) [Compound 701] | – | – | 100 | 100
6 | CSc1ccc(NC(=O)OC(c2ccc(C(F)(F)F)cc2)C2CCN(Cc3ccc(Oc4ccccn4)cc3)CC2)cc1 (stereo not shown) [Compound 702] | – | – | 100 | 100
7 | O=C(Nc1ccc(SC(F)(F)F)cc1)OC(c1ccc(C(F)(F)F)cc1)C1CCN(Cc2ccc(Oc3ccccn3)cc2)CC1 (stereo not shown) [Compound 703] | – | – | 100 | 100
8 | N#Cc1ccc(NC(=O)OC(c2ccc(C(F)(F)F)cc2)C2CCN(Cc3ccc(Oc4ccccn4)cc3)CC2)cc1 (stereo not shown) [Compound 704] | – | – | 100 | 100
9 | CC(=O)c1ccc(NC(=O)OC(c2ccc(C(F)(F)F)cc2)C2CCN(Cc3ccc(Oc4ccccn4)cc3)CC2)cc1 (stereo not shown) [Compound 705] | – | – | 17 | 100
10 | O=C(Nc1ccc(Cl)cc1)OC(c1ccc(OC(F)(F)F)cc1)C1CCN(Cc2ccc(Oc3cccc[n+]3[O-])cc2)CC1 (stereo not shown) [Compound 706] | – | – | 100 | 100
11 | N#Cc1cccnc1Oc1ccc(CN2CCC(C(OC(=O)Nc3ccc(Cl)cc3)c3ccc(OC(F)(F)F)cc3)CC2)cc1 (stereo not shown) [Compound 707] | – | – | 100 | 100
12 | N#Cc1ccc(Oc2ccc(CN3CCC(C(OC(=O)Nc4ccc(Cl)cc4)c4ccc(OC(F)(F)F)cc4)CC3)cc2)nc1 (stereo not shown) [Compound 708] | – | – | 100 | 100
13 | O=C(Nc1cc(F)cc(F)c1)OC(c1ccc(OC(F)(F)F)cc1)C1CCN(Cc2ccc(Oc3cccc[n+]3[O-])cc2)CC1 (stereo not shown) [Compound 709] | – | – | 100 | 100
14 | N#Cc1cccnc1Oc1ccc(CN2CCC(C(OC(=O)Nc3cc(F)cc(F)c3)c3ccc(OC(F)(F)F)cc3)CC2)cc1 (stereo not shown) [Compound 710] | – | – | 100 | 100
15 | N#Cc1ccc(Oc2ccc(CN3CCC(C(OC(=O)Nc4cc(F)cc(F)c4)c4ccc(OC(F)(F)F)cc4)CC3)cc2)nc1 (stereo not shown) [Compound 711] | – | – | 100 | 100
16 | O=C(Nc1ccc(Cl)cc1)OC(c1ccc(Cl)cc1)C1CCN(Cc2ccc(Oc3ncccn3)cc2)CC1 (stereo not shown) [Compound 712] | – | – | 100 | 100
17 | O=C(Nc1cccc(F)c1)OC(c1ccc(Cl)cc1)C1CCN(Cc2ccc(Oc3ncccn3)cc2)CC1 (stereo not shown) [Compound 713] | – | – | 100 | 100
18 | O=C(Nc1cc(F)cc(F)c1)OC(c1ccc(Cl)cc1)C1CCN(Cc2ccc(Oc3ncccn3)cc2)CC1 (stereo not shown) [Compound 714] | – | – | 100 | 100
19 | O=C(Nc1ccc(Cl)cc1)OC(c1ccc(F)cc1)C1CCN(Cc2ccc(Oc3ncccn3)cc2)CC1 (stereo not shown) [Compound 715] | – | – | 100 | 100
20 | O=C(Nc1cccc(F)c1)OC(c1ccc(F)cc1)C1CCN(Cc2ccc(Oc3ncccn3)cc2)CC1 (stereo not shown) [Compound 716] | – | – | 100 | 100
